Series [1] deals with NHDF cells. Nature of the series: Annexin V-FITC / PI flow cytometry, NHDF. In kind it is cell-based, human. The note with it: 10 µM, 48 h. How it is done: For this purpose, the fluorescein isothiocyanate (FITC)-conjugated annexin V - PI (propidium iodide) flow cytometry assay is employed, allowing the identification of apoptosis and necrosis. Thus, MCF-7 and NHDF cells are treated with two concentrations (10 nM and 10 µM) of each compound for 48 h. These concentrations are […], except for [32]phen2N4 on MCF-7 cells.
To detect apoptosis, cells were stained with propidium iodide (PI) and fluorescein isothiocyanate (FITC)-conjugated annexin V using an Annexin V-FITC Apoptosis Detection Kit (BD PharmingenTM). Briefly, cells were seeded in […] flasks in the culture medium containing FBS and after reaching approximated 90% confluence they were treated with two concentrations (10 nM and 10 µM) of each compound for 48 h, with untreated cells serving as control. At the end of incubation, cells were harvested by trypsin-EDTA treatment, washed twice with cold PBS and resuspended with 1× binding buffer (1 mL). […] After the addition of […] of 1× binding buffer, stained cells were subjected to fluorescence-activated cell sorter (FACS) analysis using a FACSCalibur flow cytometer. The FITC fluorescence was measured between 515 and 545 nm and the PI fluorescence between 564 and 606 nm. […]
In general terms: In flow cytometry, cells or beads pass a laser one at a time.

The subject of series [2] is human breast cancer cells (MCF-7). Kind of series: MTT cytotoxicity assay, MCF-7. In kind it is cell-based. The note with it: MCF-7 cells; for IC50: Homo sapiens, MCF7, MTT, 48 h. Here is the method:
(§1) One of the key issues to consider a probe suitable for living cells use is its cellular toxicity. In this context, the cytotoxicity of the five synthesised macrocyclic compounds is assessed by a 3-(4,5-dimethylthiazol-2-yl)-2,5-diphenyltetrazolium bromide (MTT) assay. The cytotoxicity of the starting material 1,10-phenanthroline-2,9-dicarbaldehyde is measured by MTT assay for comparison. In this quantitative colorimetric assay, the amount of MTT reduced by cells to its formazan derivative is quantified spectroscopically at 570 nm and is considered equivalent to the number of viable cells. The cytotoxicity of the referred compounds is evaluated using human breast cancer cells (MCF-7), non-cancerous human dermal fibroblasts (NHDF) and human adult dermal skin fibroblasts (designated P14) obtained from the breast biopsy specimen of a person diagnosed with breast cancer. All cells have been exposed to the six different compounds in five concentrations ranging from 10 nM to 100 µM during a period of exposition of 48 h.
(§2) Cell viability was studied quantifying the extent of the reduction of 3-(4,5-dimethylthiazol-2-yl)-2,5-diphenyltetrazolium bromide (MTT) according to a previously described procedure. Briefly, cells were seeded in 48-well plates (0.5×10^4 cells/well) in the culture medium containing FBS and after 48 h they were treated with five concentrations (10 nM and 100 nM, 1 µM, 10 µM and 100 µM) of the different compounds for 48 h, with untreated cells serving as control. At the end of incubation the media in wells were removed and replaced with fresh media and MTT solution and incubated at 37°C for 4 h. Thereafter, media-containing MTT were removed and formazan crystals were dissolved and absorbance was recorded in Biorad 550 microplate reader at 570 nm. The extent of cell death was expressed as the percentage of cell viability in comparison with control cells.
(§3) All experiments were performed in triplicate. The IC50 values were calculated from the obtained dose-response curve by sigmoid fitting. Graphical results of citotoxicity were expressed as the average values ± SEM (standard error of mean). Comparison among multiple groups was analyzed by using a one-way ANOVA followed by Dunnet's post hoc tests to determine significant differences among the means. Difference between groups was considered statistically significant at P<0.05.
Background: Formazan colour is commonly taken as a measure of viable cells.

Series [3] has as its system human adult dermal skin fibroblasts (P14). Nature of the series: MTT cytotoxicity assay, P14. It counts as cell-based. The note with it: P14 cells, 48 h; for IC50: Homo sapiens, Skin fibroblast; for reduction in cell viability (approximately 50%): 0.1 µM. How it is done:
as §1, §2, §3

Series [4] relates to non-cancerous human dermal fibroblasts (NHDF). Kind of series: MTT cytotoxicity assay, NHDF. In kind it is cell-based. The note with it: NHDF cells, 48 h. Here is the method: as §1, with “All cells have been exposed to the six different compounds in five concentrations ranging from 10 nM to 100 µM during a period of exposition of 48 h.” left out
Cell viability was studied quantifying the extent of the reduction of 3-(4,5-dimethylthiazol-2-yl)-2,5-diphenyltetrazolium bromide (MTT) according to a previously described procedure. […] Thereafter, media-containing MTT were removed and formazan crystals were dissolved and absorbance was recorded in Biorad 550 microplate reader at 570 nm. The extent of cell death was expressed as the percentage of cell viability in comparison with control cells. […]

The test system of the next series is MCF-7 cells. Nature of the series: Mitochondrial membrane potential by flow cytometry (CMXRos / MitoTracker Green), MCF-7. The note with it: 10 µM, 48 h. In kind it is cell-based, human. An excerpt: (§4) In order to study the effects of the compounds in mitochondrial membrane potential (MMP) of MCF-7 and NHDF cells, flow cytometry assay was employed to monitor any fluorescence changes in MitoTracker Green™ and red fluorescence of chloromethyl-X-rosamine (CMXRos), treatment with the uncoupler 2,4-dinitrophenol (2,4-DNP) to collapse the MMP. While MitoTracker Green™ staining was relatively unaffected by changes in MMP, the CMXRos staining of mitochondria is sensitive to MMP [30]. Also, laser scanning confocal microscopy was employed to analyze changes in mitochondrial localization by treated cells with uncoupler 2,4-DNP and staining with MitoTracker Green™ and compounds.
(§5) The assessment of mitochondrial membrane potential was determined as described previously. Briefly, the cells were incubated with 200 nM of MitoTracker Green™ and 200 nM of Mitotracker Red (CMXRos) for 30 min prior to harvesting. The 2,4-dinitrophenol (DNP) was used as a mitochondrial uncoupler (300 µM, 2 h). The cells were treated with compounds concentration 10 µM for 48 h. The relative mitochondrial membrane potential was analyzed by flow cytometry by measuring the mean intensity of FL1 (green) and FL4 (red) channels. The FL4/FL1 ratio intensities of compounds treated and positive control (DNP) were compared and indicated if the compounds change the mitochondrial membrane potential of the cells.

Series [5] relates to NHDF cells. Nature of the series: Mitochondrial membrane potential by flow cytometry (CMXRos / MitoTracker Green), NHDF. It counts as cell-based, human. The note with it: 10 µM, 48 h.
Source text: as §4, §5

The subject of series [6] is MCF-7, NHDF and P14 cells. Nature of the series: Fluorescence and confocal microscopy: uptake and sub-cellular localization. In kind it is cell-based, human. The note with it: 10 nM and 100 µM over 48 h. Here is the method: The timescale of trafficking of these compounds and their sub-cellular localization have been subsequently examined in MCF-7, NHDF and P14 cells using fluorescence microscopy. The cells are mounting on 0.1 mm thick glass cover slips by withdrawal of the respectively growth medium.
The incubation times to test the ability compounds to penetrate into cells varied from 5 min to 48 h, and concentrations onto the cells were 10 nM and 100 µM by dissolving in appropriate medium. […] By analyzing each image recorded, all the compounds in all cells rapidly crossed the cell membrane (5 min) and induced a slight stain in the first minutes of incubation, depending on the type of cells. However, for incubation times longer than 30 min, it seems that this difference in the stained disappeared, thus appearing that the compounds were localized into an organelle of the cytoplasm.
Besides, the subcellular localization of the compounds has been confirmed by co-staining with MitoTracker™ (25 nM, 45 min of incubation) and ER-Tracker™ (100 nM, 30 min of incubation) probes in MCF-7, NHDF and P14 cells, with compound concentrations of 10 nM and 100 nM and for incubation times of 1 h.
After growth in the glass bottom culture dishes coated with collagen (1×10^4 cells/dish), the cells were incubated in the dark at 37°C with 10 nM of all the compounds and analyzed from 5 min to 48 h. […]

Structures are written as SMILES.

As usually defined, the IC50 is the midpoint of a concentration-inhibition curve. The low end stands for higher potency, the high end for lower potency. Take `O=Cc1ccc2ccc3ccc(C=O)nc3c2n1` [1,10-phen, 1,10-phenanthroline-2,9-dicarbaldehyde, reference compound]: the “percentage of late apoptotic cells” value with NHDF cells [1] is on record as “about 20%”. In series [2], this compound had an IC50 above 100 µM.
With `CN1CCCNCc2cccc(n2)CNCCCN(C)CCCNCc2cccc(n2)CNCCC1` [Me2[28]py2N6], the IC50 in series [3] is 36.8 ± 4.68 µM; in series [4], 69.7 ± 3.02 µM; in series [2] it was above 100 µM. The “effect on mitochondrial membrane potential (red fluorescence, FL4/FL1) versus positive control 2,4-DNP” value in the series on MCF-7 cells is “decrease of red fluorescence”.
Consider `c1cc2ccc3ccc4nc3c2nc1CNCCCCCCNC4` [[16]phenN2], for which the “effect on mitochondrial membrane potential (FL4/FL1 ratio) versus positive control 2,4-DNP” value in the series with NHDF cells [5] is “modify the MMP”. Moreover, the “reduction in cell viability (approximately 50%)” value in series [3] is listed as “not observed”. Moreover, the “percentage of late apoptotic cells” value in the series on NHDF cells [1] was “about 20%”. The “effect on mitochondrial membrane potential (red fluorescence, FL4/FL1) versus positive control 2,4-DNP” value with MCF-7 cells is given as “decrease of red fluorescence”. This compound also yielded an IC50 in series [2] above 100 µM.
Compound `c1cc2ccc3ccc4nc3c2nc1CNCCNCCNCc1ccc2ccc3ccc(nc3c2n1)CNCCNCCNC4` [[30]phen2N6] displayed an IC50 in series [2] above 100 µM.
Turning to `c1cc2ccc3ccc4nc3c2nc1CNCCCCCCNCc1ccc2ccc3ccc(nc3c2n1)CNCCCCCCNC4` [[32]phen2N4], the IC50 in series [3] was 85.3 ± 1.79 µM; in series [4], 78.9 ± 2.82 µM; in series [2] it was below 0.01 µM. Also, in series [6], the “signs of cytotoxicity in microscopy” value was “no relevant signs of cytotoxicity”. Moreover, the cytotoxicity entry in series [2] (10 nM to 10 µM) is recorded as “highly cytotoxic”.
Take `c1cc2ccc3ccc4nc3c2nc1CN1CCCCCCN(C4)Cc2ccc3ccc4ccc(nc4c3n2)CN2CCCCCCN(Cc3ccc4ccc5ccc(nc5c4n3)C2)Cc2ccc3ccc4ccc(nc4c3n2)C1` [cryptphen]: in the series with NHDF cells [5], the “effect on mitochondrial membrane potential (FL4/FL1 ratio) versus positive control 2,4-DNP” value is “modify the MMP”. Moreover, in series [3], the “reduction in cell viability (approximately 50%)” value was “not observed”. Moreover, the IC50 in series [2] is above 100 µM.

The record behind these values is article PMC3221659, “Targeting of Mitochondria-Endoplasmic Reticulum by Fluorescent Macrocyclic Compounds” (PLoS ONE, 2011).
